Literature values in patent US12357667B2, “Nutraceutical formulations to prevent, treat, and inhibit excess cytokines, SARS-CoV-2 spike proteins, and mRNA vaccine spike proteins” (priority 2021, dated 2025).

Experiments:
[1] = system: SARS-CoV-2 alpha variant B.1.1.7 and the beta variant B.1.351; conditions: alpha variant B.1.1.7 and beta variant B.1.351
[2] = system: variant spikes from the SARS-CoV-2 alpha and delta strains

## CCCCCc1cc(O)c(C/C=C(\C)CCC=C(C)C)c(O)c1C(=O)O [cannabigerolic acid]
[1]
  effectiveness against variants: equally effective

## N[C@@H](CCC(=O)N[C@@H](CS)C(=O)NCC(=O)O)C(=O)O [glutathione, γ-glutamyl cysteinyl glycine]
[2]
  activity of variant spikes: suppressed

## C=C(C)[C@@H]1CCC(C)=C[C@H]1c1c(O)cc(CCCCC)c(C(=O)O)c1O [cannabidiolic acid]
[1]
  effectiveness against variants: equally effective

## CC(=O)N[C@@H](CS)C(=O)O [N-acetylcysteine, reference compound]
[2]
  activity of variant spikes: suppressed
